“Also recorded” adds a separate entry of the source.
Experiments:
Format in all cases: cell-based
CRBN-CSNK1A1 interaction = biological target: T1, CRBN-CSNK1A1 interaction (Homo sapiens, UniProt Q96SW2); assay: MAPPIT inverse assay with alternative CSNK1A1 receptor fusion (leptin receptor extracellular domain, pCLG-CSNK1A1); details: inverse configuration, activated with leptin, 0, 0.1, 1, 10 μM, HEK293T
T1 construct: expressed in transfected cells; host or cells: HEK293T
Method: Cells were treated with leptin without or with the indicated dose of test compound at 24 hours after transfection. Luciferase activity was measured 24 hours after test compound treatment using the Luciferase Assay System kit (PROMEGA, Madison, Wis.) with an Ensight plate reader (PERKIN ELMER LIFE SCIENCES, Waltham, Mass.). […] Error bars represent standard deviations.

CRBN-ZFP91 interaction [1] = biological target: T2, CRBN-ZFP91 interaction (Homo sapiens, UniProt Q96SW2); assay: MAPPIT forward assay, CRBN receptor fusion + ZFP91 gp130 fusion; design: MAPPIT chimeric receptor (EPO receptor extracellular domain + signaling-deficient leptin receptor part); expressed in transfected cells; host or cells: HEK293T; details: forward configuration; HEK293T cells; EPO; dose-response
Excerpt: (§1) The traditional MAPPIT assay has been used to monitor protein-protein interactions. A bait protein (protein A) is expressed as a fusion protein in which it is genetically fused to an engineered intracellular receptor domain of the leptin receptor, which is itself fused to the extracellular domain of the erythropoietin (Epo) receptor. Binding of Epo ligand to the Epo receptor component results in activation of receptor-associated intracellular JAK2. However, activated JAK2 cannot activate the leptin receptor to trigger STAT3 binding and its phosphorylation because its tyrosine residues, normally phosphorylated by activated JAK2, have been mutated. […] Activation of STAT3 can be monitored by introduction of a STAT3-responsive reporter gene, including a luciferase-encoding gene or a gene encoding a fluorescent marker such as GFP or some other type of Fluorescent Protein (EGFP etc.). […]
(§2) Full size proteins were fused for each of the target/prey proteins tested, except in the case of IKZF1 where isoform 7 was used. […] Luciferase activity was measured 24 hours after test compound treatment using the Luciferase Assay System kit (PROMEGA, Madison, Wis.) with an Ensight plate reader (PERKIN ELMER LIFE SCIENCES, Waltham, Mass.). […]
Target sequence in this assay (Q96SW2 whole entry, the tested form may be a part): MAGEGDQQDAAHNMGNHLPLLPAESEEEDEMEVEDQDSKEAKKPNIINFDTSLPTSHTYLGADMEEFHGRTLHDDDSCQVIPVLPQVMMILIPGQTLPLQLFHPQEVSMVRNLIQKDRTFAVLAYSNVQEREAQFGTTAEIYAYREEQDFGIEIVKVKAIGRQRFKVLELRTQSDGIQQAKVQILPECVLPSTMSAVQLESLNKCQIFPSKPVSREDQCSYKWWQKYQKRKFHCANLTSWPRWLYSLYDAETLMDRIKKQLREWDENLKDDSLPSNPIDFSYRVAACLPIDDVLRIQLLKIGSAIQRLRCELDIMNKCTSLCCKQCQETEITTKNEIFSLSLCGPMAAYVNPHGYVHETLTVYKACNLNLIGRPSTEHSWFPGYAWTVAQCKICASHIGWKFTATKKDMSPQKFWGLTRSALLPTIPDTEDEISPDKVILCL

CRBN-SALL4 interaction = CRBN-SALL4 interaction (Homo sapiens, UniProt Q96SW2); assay: MAPPIT forward assay, CRBN receptor fusion + SALL4 gp130 fusion; design: MAPPIT chimeric receptor (EPO receptor extracellular domain + signaling-deficient leptin receptor part); expressed in transfected cells; host or cells: HEK293T; details: forward configuration; HEK293T cells; EPO; dose-response
Excerpt: as §1, §2

CRBN-IKZF2 interaction = CRBN-IKZF2 interaction (Homo sapiens, UniProt Q96SW2); assay: MAPPIT inverse assay, CRBN gp130 fusion + IKZF2 receptor fusion; design: expressed in transfected cells; host or cells: HEK293T; details: inverse configuration; HEK293T cells; EPO; dose-response
Excerpt: as §1, §2

[2] = system: CRBN and human ORF(eome) cDNA library targets; assay: Inverse MAPPIT cell microarray ORF cDNA library screen with CRBN bait; details: HEK293T
Method: In order to identify ligand-induced CRBN substrates, or neosubstrates, a MAPPIT cell microarray screen was performed using the procedure described in Lievens, et al. “Proteome-scale binary interactomics in human cells.” Molecular & Cellular Proteomics 15.12 (2016): 3624-3639. In brief, HEK293T cells were transfected with a CRBN bait expression plasmid encoding a gp130-CRBN fusion construct. These transfected cells were then added to microarray screening plates containing a MAPPIT chimeric membrane receptor fusion expression plasmid collection covering over 15,000 ORFs. Each spot in the microarray contained a different chimeric receptor-ORF fusion expression plasmid, as well as a STAT3-responsive fluorescence protein-encoding reporter plasmid. Gp130-CRBN bait transfected cells landing and attaching on these spots therefore become transfected as well with the receptor-ORF prey plasmid and the reporter plasmid, resulting in a different CRBN-ORF combination being tested in the cells on every different microarray spot. Twenty-four hours after transfection cells were differentially stimulated with erythropoietin with and without the CRBN ligand CC-220 (1 μM final concentration), and reporter signal (GFP-like fluorescence reporter) was read out 48 hours later.

CRBN-IKZF3 interaction [3] = biological target: T3, CRBN-IKZF3 interaction (Homo sapiens, UniProt Q96SW2); assay: MAPPIT forward assay, CRBN receptor fusion + IKZF3 gp130 fusion; design: MAPPIT chimeric receptor (EPO receptor extracellular domain + signaling-deficient leptin receptor part); expressed in transfected cells; host or cells: HEK293T; details: forward configuration; HEK293T cells; EPO; dose-response
Excerpt: as §1, §2
Target sequence in this assay (Q96SW2 whole entry, the tested form may be a part): as above

[4] = biological target: T4, CRBN-CSNK1A (CK1a) interaction (Homo sapiens, UniProt Q96SW2); assay: MAPPIT forward assay, CRBN receptor fusion + CSNK1A1 gp130 fusion; design: MAPPIT chimeric receptor (EPO receptor extracellular domain + signaling-deficient leptin receptor part); expressed in transfected cells; host or cells: HEK293T; details: forward configuration; HEK293T cells; EPO; dose-response
Excerpt: as §1, §2
Target sequence in this assay (Q96SW2 whole entry, the tested form may be a part): as above

[5] = biological target: T4, CRBN-CSNK1A (CK1a) interaction; assay: MAPPIT inverse assay, CRBN gp130 fusion + CSNK1A1 receptor fusion; design: expressed in transfected cells; host or cells: HEK293T; details: inverse configuration; HEK293T cells; EPO; dose-response
Excerpt: as §1, §2
Target sequence in this assay (Q96SW2 whole entry, the tested form may be a part): as above
Target sequence in this assay (P48729 whole entry partner, the tested form may be a part): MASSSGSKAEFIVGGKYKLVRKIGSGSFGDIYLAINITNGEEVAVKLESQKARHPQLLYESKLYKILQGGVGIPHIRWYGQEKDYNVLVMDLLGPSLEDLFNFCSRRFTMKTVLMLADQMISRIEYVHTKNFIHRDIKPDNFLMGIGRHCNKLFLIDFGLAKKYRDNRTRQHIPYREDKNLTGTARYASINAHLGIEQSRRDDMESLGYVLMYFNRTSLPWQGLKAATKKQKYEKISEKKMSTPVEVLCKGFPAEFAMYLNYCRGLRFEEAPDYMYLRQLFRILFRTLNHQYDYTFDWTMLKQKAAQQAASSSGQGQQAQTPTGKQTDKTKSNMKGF

CRBN-ZFP91 interaction [6] = biological target: T2, CRBN-ZFP91 interaction; assay: MAPPIT inverse assay, CRBN gp130 fusion + ZFP91 receptor fusion; design: expressed in transfected cells; host or cells: HEK293T; details: inverse configuration; HEK293T cells; EPO; dose-response
Excerpt: as §1, §2
Target sequence in this assay (Q96SW2 whole entry, the tested form may be a part): as the sequence (Q96SW2 whole entry, the tested form may be a part) above
Target sequence in this assay (Q96JP5 whole entry partner, the tested form may be a part): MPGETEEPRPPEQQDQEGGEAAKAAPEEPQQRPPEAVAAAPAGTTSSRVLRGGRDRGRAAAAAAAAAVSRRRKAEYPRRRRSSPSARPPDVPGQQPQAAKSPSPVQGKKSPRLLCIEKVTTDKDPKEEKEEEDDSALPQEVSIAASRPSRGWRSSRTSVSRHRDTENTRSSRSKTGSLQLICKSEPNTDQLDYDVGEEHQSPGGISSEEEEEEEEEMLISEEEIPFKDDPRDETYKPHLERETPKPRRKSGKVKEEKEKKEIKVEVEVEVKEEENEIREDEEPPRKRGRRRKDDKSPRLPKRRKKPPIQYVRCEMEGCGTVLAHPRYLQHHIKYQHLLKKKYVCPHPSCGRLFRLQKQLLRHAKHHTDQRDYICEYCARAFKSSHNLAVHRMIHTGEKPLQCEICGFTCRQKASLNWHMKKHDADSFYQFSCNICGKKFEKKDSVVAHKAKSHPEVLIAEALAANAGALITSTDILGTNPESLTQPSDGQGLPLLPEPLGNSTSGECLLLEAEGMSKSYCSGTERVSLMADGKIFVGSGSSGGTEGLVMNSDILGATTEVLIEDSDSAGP

CRBN-IKZF3 interaction [7] = biological target: T3, CRBN-IKZF3 interaction; assay: MAPPIT inverse assay, CRBN gp130 fusion + IKZF3 receptor fusion; design: expressed in transfected cells; host or cells: HEK293T; details: inverse configuration; HEK293T cells; EPO; dose-response
Excerpt: as §1, §2
Target sequence in this assay (Q96SW2 whole entry, the tested form may be a part): as the sequence (Q96SW2 whole entry, the tested form may be a part) above
Target sequence in this assay (Q9UKT9 whole entry partner, the tested form may be a part): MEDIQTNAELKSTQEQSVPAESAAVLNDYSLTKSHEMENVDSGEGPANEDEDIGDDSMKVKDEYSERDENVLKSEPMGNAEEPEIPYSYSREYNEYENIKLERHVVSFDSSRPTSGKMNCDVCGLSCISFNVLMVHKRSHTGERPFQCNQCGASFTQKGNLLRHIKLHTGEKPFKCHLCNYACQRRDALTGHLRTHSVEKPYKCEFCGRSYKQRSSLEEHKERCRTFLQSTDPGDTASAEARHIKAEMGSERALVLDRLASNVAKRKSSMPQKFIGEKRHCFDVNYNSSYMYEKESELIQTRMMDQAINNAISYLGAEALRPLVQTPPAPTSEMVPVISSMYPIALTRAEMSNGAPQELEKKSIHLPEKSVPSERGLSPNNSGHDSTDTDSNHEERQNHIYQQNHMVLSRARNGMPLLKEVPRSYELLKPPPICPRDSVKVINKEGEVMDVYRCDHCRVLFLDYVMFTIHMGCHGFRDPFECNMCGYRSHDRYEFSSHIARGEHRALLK

CRBN-SALL4 interaction, sequence (Q96SW2 whole entry, the tested form may be a part): as the sequence (Q96SW2 whole entry, the tested form may be a part) above
CRBN-IKZF2 interaction, sequence (Q96SW2 whole entry, the tested form may be a part): as above
CRBN-IKZF2 interaction, sequence (Q9UKS7 whole entry partner, the tested form may be a part): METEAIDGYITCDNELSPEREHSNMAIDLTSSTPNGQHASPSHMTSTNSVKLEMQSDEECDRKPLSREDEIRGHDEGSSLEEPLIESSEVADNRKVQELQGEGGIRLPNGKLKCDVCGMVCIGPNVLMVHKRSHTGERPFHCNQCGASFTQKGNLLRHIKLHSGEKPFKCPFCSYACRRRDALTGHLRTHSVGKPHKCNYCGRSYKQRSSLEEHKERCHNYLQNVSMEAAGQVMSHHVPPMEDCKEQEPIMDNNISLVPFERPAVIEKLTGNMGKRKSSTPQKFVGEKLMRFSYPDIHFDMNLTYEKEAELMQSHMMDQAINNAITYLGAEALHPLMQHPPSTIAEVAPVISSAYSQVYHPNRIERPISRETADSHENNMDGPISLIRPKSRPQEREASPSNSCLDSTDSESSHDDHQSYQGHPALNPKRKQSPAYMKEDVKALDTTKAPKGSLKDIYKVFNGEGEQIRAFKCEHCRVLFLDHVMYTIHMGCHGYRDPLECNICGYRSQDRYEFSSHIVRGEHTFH
T1 sequence (Q96SW2 whole entry, the tested form may be a part): as the sequence (Q96SW2 whole entry, the tested form may be a part) above
T1 sequence (P48729 whole entry partner, the tested form may be a part): as the sequence (P48729 whole entry partner, the tested form may be a part) above

O=C1CC[C@H](N2Cc3c(OCc4ccc(CN5CCOCC5)cc4)cccc3C2=O)C(=O)N1 [CC-220]
compound-induced CRBN-CSNK1A1 interaction (CSNK1A1 neosubstrate recruitment) (CRBN-CSNK1A1 interaction): CSNK1A1 neosubstrate recruitment can be detected
compound-induced binding of ZFP91 to CRBN (luciferase reporter signal) (CRBN-ZFP91 interaction [1]): only in the inverse assay setup an interaction signal response could be detected
compound-induced binding of SALL4 to CRBN (luciferase reporter signal) (CRBN-SALL4 interaction): only in the inverse assay setup an interaction signal response could be detected
compound-induced binding of IKZF2 to CRBN (luciferase reporter signal) (CRBN-IKZF2 interaction): an interaction signal response could be detected
induction of fluorescence reporter signal in ORF cDNA cell microarray screen ([2]; CC-220 1 μM final concentration, over 15,000 ORFs, erythropoietin): a significant induction of signal is observed for a number of ORF cDNAs
dose-response confirmation of binding of three ORF hits to CRBN ([2]; inverse MAPPIT luciferase assay, EPO): dose-dependent binding to CRBN
compound-induced binding of IKZF3 to CRBN (luciferase reporter signal) (CRBN-IKZF3 interaction [3]): only in the inverse assay setup an interaction signal response could be detected
compound-induced binding of CSNK1A (CK1a) to CRBN (luciferase reporter signal) [4]: only in the inverse assay setup an interaction signal response could be detected
compound-induced binding of CSNK1A (CK1a) to CRBN (luciferase reporter signal) [5]: an interaction signal response could be detected; also recorded: specific signal in the inverse
compound-induced binding of ZFP91 to CRBN (luciferase reporter signal) (CRBN-ZFP91 interaction [6]): an interaction signal response could be detected
compound-induced binding of IKZF3 to CRBN (luciferase reporter signal) (CRBN-IKZF3 interaction [7]): an interaction signal response could be detected

Source: patent US20230026360A1, “DETECTION OF MOLECULAR INTERACTIONS” (Orionis Biosciences, Inc., priority 2019, published 2023)
